Patent US12180187B2, “1-phenyl-5-azinylpyrazolyl-3-oxyalkyl acids and their use for controlling unwanted plant growth” (BAYER AKTIENGESELLSCHAFT, priority 2019, dated 2024)

What was measured:
[1] = test system: ALOMY; test: Pre-emergence action at 320 g/ha against ALOMY; type: in vivo, Alopecurus myosuroides; conditions: scored visually after about 3 weeks vs untreated controls (100% = plants have died)
Outline: (§1)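 Visual scoring in percent against untreated controls, about 3 weeks after treatment, where 100% means dead plants and 0% means no difference. Compounds were applied as aqueous suspension or emulsion (WP or EC, plus 0.5% additive) onto soil covering freshly sown seeds, at 600 l/ha water.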

[2] = test system: AMARE; test: Pre-emergence action at 320 g/ha against AMARE; type: in vivo, Amaranthus retroflexus; conditions: visual scoring after about 3 weeks vs untreated controls
Outline: as §1

[3] = test system: SETVI; test: Pre-emergence action against SETVI, 1280 g/ha; type: in vivo, Setaria viridis; conditions: visual scoring after about 3 weeks vs untreated controls, 100% = plants have died, 0% = like control plants
Outline: (§2)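 Activity was scored visually as percent versus untreated controls about 3 weeks after treatment (100% = dead plants, 0% = control-like). Compounds, formulated as wettable powders or emulsion concentrates, were sprayed onto the covering soil over freshly sown seeds in sandy loam, with 0.5% additive and 600 L/ha water.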

[4] = test system: DIGSA; test: Pre-emergence action at 320 g/ha against DIGSA; type: in vivo, Digitaria sanguinalis; conditions: visual scoring after about 3 weeks vs untreated controls
Outline: as §1

[5] = test system: VERPE; test: Pre-emergence action at 320 g/ha against VERPE; type: in vivo, Veronica persica; conditions: visual scoring after about 3 weeks vs untreated controls
Outline: as §1

[6] = test system: POAAN; test: Pre-emergence action against POAAN, 1280 g/ha; type: in vivo, Poa annua; conditions: visual scoring after about 3 weeks vs untreated controls, 100% = plants have died, 0% = like control plants
Outline: as §2

[7] = test system: POAAN; test: Post-emergence action against POAAN, 1.28 kg/ha; type: in vivo, Poa annua; conditions: dosage 1280 g/ha, visual rating about 3 weeks after treatment vs untreated controls
Outline: (§3)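 Greenhouse pot test, sandy loam; weeds sprayed post-emergence at one-leaf stage (2–3 weeks after sowing) with WP or EC formulation plus 0.5% additive, 600 l/ha water. Visual rating after about 3 weeks versus untreated controls, 100% = plants dead, 0% = like control.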

[8] = test system: DIGSA; test: Post-emergence action against DIGSA, 1.28 kg/ha; type: in vivo, Digitaria sanguinalis; conditions: dosage 1280 g/ha, visual rating about 3 weeks after treatment vs untreated controls
Outline: as §3

[9] = test system: AMARE; test: Pre-emergence action against AMARE, 1280 g/ha; type: in vivo, Amaranthus retroflexus; conditions: scored visually after about 3 weeks vs untreated controls (100% = plants have died)
Outline: as §2

[10] = test system: ECHCG; test: Pre-emergence action against ECHCG, 1280 g/ha; type: in vivo, Echinochloa crus-galli; conditions: visual scoring after about 3 weeks vs untreated controls, 100% = plants have died, 0% = like control plants
Outline: as §2

[11] = test system: MATIN; test: Pre-emergence action against MATIN, 1280 g/ha; type: in vivo, Tripleurospermum inodorum (Matricaria inodora); conditions: scored visually after about 3 weeks vs untreated controls (100% = plants have died)
Outline: as §2

[12] = test system: MATIN; test: Pre-emergence action at 320 g/ha against MATIN; type: in vivo, Tripleurospermum inodorum (Matricaria inodora); conditions: visual scoring after about 3 weeks vs untreated controls
Outline: as §1

[13] = test system: SETVI; test: Pre-emergence action at 320 g/ha against SETVI; type: in vivo, Setaria viridis; conditions: visual scoring after about 3 weeks vs untreated controls
Outline: as §1

[14] = test system: POLCO; test: Pre-emergence action at 320 g/ha against POLCO; type: in vivo, Fallopia convolvulus (Polygonum convolvulus); conditions: visual scoring after about 3 weeks vs untreated controls
Outline: as §1

[15] = test system: STEME; test: Pre-emergence action against STEME, 1280 g/ha; type: in vivo, Stellaria media; conditions: scored visually after about 3 weeks vs untreated controls (100% = plants have died)
Outline: as §2

[16] = test system: MATIN; test: Post-emergence action against MATIN, 1.28 kg/ha; type: in vivo, Tripleurospermum inodorum (Matricaria inodora); conditions: dosage 1280 g/ha, visual rating about 3 weeks after treatment vs untreated controls (100% = plants died)
Outline: as §3

[17] = Tripleurospermum inodorum, 504 h

| SMILES | Pre-emergence action at 320 g/ha against ALOMY in % [1] [%] | Pre-emergence action against AMARE in % [2] [%] | Pre-emergence action against SETVI [3] [%] | Pre-emergence action against DIGSA in % [4] [%] | Pre-emergence action against VERPE in % [5] [%] | Pre-emergence action against POAAN [6] [%] | Post-emergence action against POAAN [7] [%] | Post-emergence action against DIGSA [8] [%] | Pre-emergence action against AMARE [9] [%] | Pre-emergence action against ECHCG [10] [%] | Pre-emergence action against MATIN [11] [%] | Pre-emergence action against MATIN in % [12] [%] | Pre-emergence action against SETVI in % [13] [%] | Pre-emergence action against POLCO in % [14] [%] | Pre-emergence action against STEME [15] [%] | Post-emergence action against MATIN [16] [%] | also measured |
| --- | --- | --- | --- | --- | --- | --- | --- | --- | --- | --- | --- | --- | --- | --- | --- | --- | --- |
| C[C@@H](Oc1nn(-c2ccccc2F)c(-c2cncnc2)c1Br)C(=O)O [VI-012] | 90 | 100 | 100 | 100 | 100 | 100 | 100 | 90 | 100 | 90 | 90 | 90 | 100 | 80 | 100 | – | – |
| COC(=O)[C@@H](C)Oc1nn(-c2ccccc2F)c(-c2cncnc2)c1Br [VI-011, Methyl (2R)-2-{[4-bromo-1-(2-fluorophenyl)-5-(pyrimidin-5-yl)-1H-pyrazol-3-yl]oxy}propanoate] | – | – | – | – | – | – | – | 100 | – | – | – | – | – | – | – | – | pest or weed control at 320 g/ha ([1]; Alopecurus myosuroides, 504 h): 100%; pest or weed control at 320 g/ha ([2]; Amaranthus retroflexus, 504 h): 100%; pest or weed control at 1280 g/ha ([3]; Setaria viridis, 504 h): 100%; pest or weed control at 320 g/ha ([4]; Digitaria sanguinalis, 504 h): 100%; pest or weed control at 320 g/ha ([5]; Veronica persica, 504 h): 90%; pest or weed control at 1280 g/ha ([6]; Poa annua, 504 h): 100%; pest or weed control at 1280 g/ha ([7]; Poa annua, 504 h): 100%; pest or weed control at 1280 g/ha ([9]; Amaranthus retroflexus, 504 h): 100%; pest or weed control at 1280 g/ha ([10]; Echinochloa crus-galli, 504 h): 100%; pest or weed control at 1280 g/ha [11, 17]: 90%; pest or weed control at 320 g/ha [12, 17]: 90%; pest or weed control at 320 g/ha ([13]; Setaria viridis, 504 h): 100%; pest or weed control at 320 g/ha ([14]; Fallopia convolvulus, 504 h): 80%; pest or weed control at 1280 g/ha ([15]; Stellaria media, 504 h): 100% |
| CCOC(=O)C(C)Oc1nn(-c2ccccc2F)c(-c2ccc(F)nc2)c1Br (stereo not drawn) [VII-019] | 100 | 100 | 100 | 100 | 100 | 100 | 100 | 100 | 100 | 100 | 90 | 100 | 100 | 100 | 100 | – | – |
| CN(C)S(=O)(=O)NC(=O)COc1nn(-c2ccccc2F)c(-c2ccc(F)nc2)c1Br [Example X-005] | 100 | 100 | 100 | 100 | 100 | 100 | 100 | – | 100 | 100 | 100 | 100 | 100 | 90 | 100 | 100 | – |
| COC(=O)[C@@H](C)Oc1nn(-c2ccccc2)c(-c2cccnc2)c1Br [VII-008] | 100 | 100 | 100 | 90 | 100 | 100 | 100 | – | 100 | 100 | 100 | 100 | 100 | 100 | 100 | 90 | – |
| COC(=O)COc1nn(-c2ccc(F)cc2)c(-c2ccc(F)nc2)c1Br [VII-002] | 90 | 100 | 100 | 100 | 100 | 100 | 100 | – | 100 | 100 | 90 | 100 | 90 | 100 | 100 | 90 | – |
| CCOC(=O)COc1nn(-c2ccc(F)cc2F)c(-c2ccc(F)nc2)c1Cl [VII-016] | 100 | 100 | 100 | 100 | 90 | 100 | 100 | – | 100 | 100 | 90 | 80 | 100 | 90 | 100 | 100 | – |
| COC(=O)COc1nn(-c2ccc(F)cc2)c(-c2cccnc2)c1Br [VII-028] | 100 | 90 | 100 | 90 | 100 | 100 | 90 | – | 90 | 100 | 100 | 80 | 100 | 90 | 100 | 90 | – |
